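Growth conditions: 96-well plates. Treatment: test compound, 48 hours, 5 concentrations. Analysis: linear interpolation between bracketing concentrations; unreached endpoints set to highest concentration. Here, GI50 denotes the concentration required for 50% inhibition of growth. TGI denotes the concentration required for complete inhibition of growth.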 Some results are limits rather than exact numbers.

Test systems include SNB-75 CNS; SNB-19 CNS; DU-145 prostate; ACHN renal; UO-31 renal; NCI-H522 lung; SN12C renal; OVCAR-8 ovarian.
Common to all, as to assay: NCI tumour cell line growth inhibition, 48 h

Consider `COc1cccc(-c2cc(NCc3ccc4c(c3)OCO4)nc(N)n2)c1`, for which the GI50 in the assay with SNB-75 CNS was 0.0368 µM; in the assay on SNB-19 CNS it was 0.143 µM; with DU-145 prostate, 0.125 µM; in the assay with ACHN renal it was 0.24 µM; with UO-31 renal it was 0.104 µM; in the assay with NCI-H522 lung, 0.0607 µM. Also, the GI50 with SN12C renal was 0.103 µM; in the assay with OVCAR-8 ovarian, 0.123 µM. The TGI was 14.4 µM in the assay with SNB-75 CNS; 45.4 µM with SNB-19 CNS; 12.1 µM with DU-145 prostate; 29.3 µM in the assay with ACHN renal; 17 µM in the assay with UO-31 renal; 1.27 µM with NCI-H522 lung. In addition, the TGI in the assay with SN12C renal came out at 22 µM; with OVCAR-8 ovarian, 5.2 µM.
As to `COc1ccc(OC)c2c3c(ncc12)-c1cc2c(cc1C3)OCO2`, the GI50 in the assay with SNB-75 CNS is over 100 µM; with SNB-19 CNS, over 100 µM; with DU-145 prostate, 48.4 µM; in the assay with ACHN renal it was 2.97 µM; in the assay on UO-31 renal it was over 100 µM; in the assay on NCI-H522 lung it was 52.3 µM. Moreover, the GI50 in the assay on SN12C renal was over 100 µM; in the assay on OVCAR-8 ovarian, 9.48 µM. Besides, the TGI in the assay with SNB-75 CNS, in the assay with SNB-19 CNS, with DU-145 prostate, with ACHN renal, in the assay with UO-31 renal and in the assay with NCI-H522 lung was over 100 µM throughout. For the same compound, the TGI with SN12C renal and in the assay on OVCAR-8 ovarian was over 100 µM in each case.
As for `O=C(O)c1cn(C2CC2)c2cc(N3CCN(C(=O)Nc4nc(-c5ccc(Cl)cc5)cs4)CC3)c(F)cc2c1=O`, the GI50 was 2.25 µM in the assay on SNB-75 CNS; 2.74 µM in the assay on SNB-19 CNS; 2.29 µM in the assay on DU-145 prostate; 1.63 µM with ACHN renal; 0.596 µM in the assay on UO-31 renal; 2.55 µM in the assay with NCI-H522 lung. Also, the figures for the GI50 in the assay on SN12C renal and in the assay with OVCAR-8 ovarian were 3.53 µM and 1.86 µM, respectively. Besides, the TGI is 20.5 µM with SNB-75 CNS; over 100 µM in the assay on SNB-19 CNS; over 100 µM with DU-145 prostate; 22 µM in the assay with ACHN renal; 33.7 µM with UO-31 renal; 9.14 µM with NCI-H522 lung. Besides, the figures for the TGI in the assay on SN12C renal and in the assay with OVCAR-8 ovarian were over 100 µM and 50.9 µM, respectively.
In the case of `O=C(/C=C/c1ccc2c(c1)OCO2)c1ccccc(=O)c1O`, the TGI was 33.1 µM with SNB-75 CNS; 51.8 µM in the assay on SNB-19 CNS; 46.7 µM with DU-145 prostate; over 100 µM in the assay on ACHN renal; over 100 µM in the assay on UO-31 renal; 63.4 µM in the assay with NCI-H522 lung. Besides, the TGI is over 100 µM with SN12C renal and 54.2 µM in the assay on OVCAR-8 ovarian.
Consider `COc1ccc2cc(C(=O)/C=C/c3ccccc3OC)ccc2c1`, for which the GI50 in the assay on SNB-75 CNS was 4.06 µM; in the assay with SNB-19 CNS, 4.37 µM; in the assay on DU-145 prostate, 2.63 µM; with ACHN renal, 2.97 µM; with UO-31 renal it was 5.93 µM; in the assay with NCI-H522 lung, 1.93 µM. Further, the GI50 is 1.97 µM in the assay on SN12C renal and 2.71 µM with OVCAR-8 ovarian. Besides, the TGI is over 51.6 µM in the assay with SNB-75 CNS; over 51.4 µM with SNB-19 CNS; 8.07 µM in the assay with DU-145 prostate; 15.6 µM in the assay on ACHN renal; 18.8 µM in the assay on UO-31 renal; 9.67 µM with NCI-H522 lung. In addition, the figures for the TGI with SN12C renal and in the assay with OVCAR-8 ovarian were 6.82 µM and 7.34 µM, respectively.
As for `COc1ccc2c(c1)CC[C@@H]1[C@@H]2CC[C@]2(C)c3c(cc(C(=O)c4ccccc4)c4sccc34)C[C@@H]12`, the GI50 in the assay on SNB-75 CNS was 22.8 µM; in the assay on SNB-19 CNS it was over 100 µM; in the assay with DU-145 prostate, over 100 µM; in the assay on ACHN renal, over 100 µM; in the assay with UO-31 renal, over 100 µM; in the assay on NCI-H522 lung it was over 100 µM. Moreover, the GI50 with SN12C renal and in the assay with OVCAR-8 ovarian was over 100 µM each time. Also, the TGI in the assay with SNB-75 CNS, with SNB-19 CNS, with DU-145 prostate, with ACHN renal, with UO-31 renal and in the assay with NCI-H522 lung was over 100 µM in each case. For the same compound, the TGI with SN12C renal and in the assay on OVCAR-8 ovarian was over 100 µM in each case.
For `CSc1ccc2c(c1)C(=O)c1c-2n(CCCN=[N+]=[N-])c(=O)c2cc([N+](=O)[O-])ccc12`, the GI50 in the assay with SNB-75 CNS is 7.42 µM; in the assay on SNB-19 CNS it was 1.18 µM; in the assay on DU-145 prostate, 1.73 µM; in the assay on ACHN renal, 0.528 µM; in the assay with UO-31 renal, 1.62 µM; in the assay with NCI-H522 lung it was 6.01 µM. The GI50 with SN12C renal was 1.63 µM; in the assay on OVCAR-8 ovarian, 7.97 µM. Besides, the TGI with SNB-75 CNS is over 79.7 µM; with SNB-19 CNS it was over 100 µM; in the assay on DU-145 prostate, over 100 µM; in the assay with ACHN renal, over 100 µM; with UO-31 renal it was over 100 µM; in the assay on NCI-H522 lung it was over 100 µM. Also, the TGI in the assay on SN12C renal and in the assay on OVCAR-8 ovarian was over 100 µM throughout.
`O=CNc1ccc2c(c1)Cc1cc([N+](=O)[O-])ccc1-2`: the GI50 with SNB-75 CNS was 3.02 µM; with SNB-19 CNS, 5.63 µM; in the assay on DU-145 prostate, 2.83 µM; in the assay on ACHN renal, 6.52 µM; in the assay with UO-31 renal it was 3.38 µM; in the assay with NCI-H522 lung, 1.85 µM. The GI50 with SN12C renal was over 26.2 µM; with OVCAR-8 ovarian, 4.99 µM. In addition, the TGI in the assay on SNB-75 CNS is over 59.5 µM; in the assay on SNB-19 CNS, over 100 µM; in the assay with DU-145 prostate, over 100 µM; in the assay with ACHN renal, over 100 µM; with UO-31 renal, over 100 µM; in the assay on NCI-H522 lung, 7.56 µM. Also, the TGI in the assay with SN12C renal and in the assay on OVCAR-8 ovarian was over 100 µM in each case.
As to `CCC1=C[C@H]2CN(CCc3c([nH]c4ccccc34)[C@@](C(=O)OC)(c3cc4c(cc3OC)N(C)[C@H]3[C@@](O)(C(=O)OC)[C@H](OC(C)=O)[C@]5(CC)[C@@H]6C[C@@H]6CN6CC[C@]43[C@@H]65)C2)C1`, the GI50 with SNB-75 CNS is 0.595 µM; in the assay on SNB-19 CNS, 0.0825 µM; in the assay on DU-145 prostate it was 0.0239 µM; in the assay on ACHN renal, 0.144 µM; with UO-31 renal, 0.175 µM; in the assay with NCI-H522 lung, 0.011 µM. In addition, the GI50 with SN12C renal was 0.0932 µM; in the assay on OVCAR-8 ovarian, 0.127 µM. Besides, the TGI in the assay on SNB-75 CNS was over 25 µM; in the assay on SNB-19 CNS, 23.4 µM; in the assay with DU-145 prostate it was 3.15 µM; in the assay on ACHN renal, 6.02 µM; in the assay on UO-31 renal, 5.02 µM; with NCI-H522 lung it was 0.302 µM. The TGI with SN12C renal was found to be 4.99 µM; in the assay on OVCAR-8 ovarian it was 5.8 µM.
